Key:
Bleomycin + Trametinib = compound: CC1=C(N=C(N=C1N)[C@H](CC(=O)N)NC[C@@H](C(=O)N)N)C(=O)N[C@@H]([C@H](C2=CN=CN2)OC3C(C(C(C(O3)CO)O)O)OC4C(C(C(C(O4)CO)O)OC(=O)N)O)C(=O)N[C@H](C)[C@H]([C@H](C)C(=O)N[C@@H]([C@@H](C)O)C(=O)NCCC5=NC(=CS5)C6=NC(=CS6)C(=O)NCCC[S+](C)C)O [Bleomycin] + CC(=O)Nc1cccc(-n2c(=O)n(C3CC3)c(=O)c3c(Nc4ccc(I)cc4F)n(C)c(=O)c(C)c32)c1 [Trametinib] (partner 0.02 µM); test: relative viability (nuclei count vs DMSO), 5 days (fraction); higher = more cells survive; conditions: main component drawn
Outline: (§1)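 Lung cancer cell lines, seeded in 1536-well plates, were treated the following day by pin tool with a single drug or with five library-drug doses (not always all listed) in √10 steps on top of a fixed anchor-drug dose. Cells were fixed and nuclei stained in one step after 5 days, and nuclei were counted. Relative viability is the nuclei count for treated wells divided by that for vehicle wells, reported as medians of duplicate plates.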

Etoposide + Dasatinib = compound: COc1cc([C@@H]2c3cc4c(cc3[C@@H](O[C@@H]3O[C@@H]5CO[C@@H](C)O[C@H]5[C@H](O)[C@H]3O)[C@H]3COC(=O)[C@H]23)OCO4)cc(OC)c1O [Etoposide] + Cc1nc(Nc2ncc(C(=O)Nc3c(C)cccc3Cl)s2)cc(N2CCN(CCO)CC2)n1 [Dasatinib] (partner 0.075 µM); test: as above
Outline: as §1

Cell Line | relative viability (Bleomycin + Trametinib; first compound 0.01 µM) | relative viability (Bleomycin + Trametinib; first compound 0.03162 µM) | relative viability (Bleomycin + Trametinib; first compound 0.1 µM) | relative viability (Bleomycin + Trametinib; first compound 0.3162 µM) | relative viability (Bleomycin + Trametinib; first compound 1 µM) | relative viability (Etoposide + Dasatinib; first compound 0.01 µM) | relative viability (Etoposide + Dasatinib; first compound 0.03162 µM) | relative viability (Etoposide + Dasatinib; first compound 0.1 µM) | relative viability (Etoposide + Dasatinib; first compound 0.3162 µM) | relative viability (Etoposide + Dasatinib; first compound 1 µM)
RERF-LC-KJ | 0.678 | 0.563 | 0.492 | 0.272 | 0.229 | 0.602 | 0.899 | 0.707 | 0.73 | 0.494
BEN | 1.03 | 0.959 | 1.05 | 0.863 | 0.849 | 0.353 | 0.416 |  | 0.304 | 0.351
NCI-H1666 | 0.717 | 0.783 | 0.76 | 0.533 | 0.581 | 0.796 | 0.802 | 0.594 | 0.361 | 0.293
LC-2-ad | 0.736 | 0.674 | 0.541 | 0.291 | 0.243 | 0.546 | 0.612 | 0.451 | 0.244 | 0.142
SW 1573 | 0.47 | 0.424 | 0.322 | 0.191 | 0.141 | 0.43 | 0.525 | 0.212 | 0.155 | 0.0993
ChaGo-K-1 | 0.775 | 0.744 | 0.704 | 0.547 | 0.366 | 0.479 | 0.59 | 0.51 | 0.441 | 0.146
COR-L 105 | 0.459 | 0.417 | 0.419 | 0.369 | 0.332 | 0.3 | 0.345 | 0.273 | 0.328 | 0.293
NCI-H1975 | 0.326 | 0.284 | 0.327 | 0.226 | 0.152 | 0.336 | 0.426 | 0.32 | 0.348 | 0.214
NCI-H1993 | 0.493 | 0.476 | 0.459 | 0.391 | 0.346 | 0.619 | 0.712 | 0.478 | 0.546 | 0.376
SK-LU-1 | 0.415 | 0.487 | 0.464 | 0.43 | 0.392 | 0.172 | 0.177 | 0.172 | 0.14 | 0.122
NCI-H2347 | 0.309 | 0.254 | 0.29 | 0.279 | 0.226 | 0.365 | 0.294 | 0.293 | 0.255 | 0.249
HCC-366 | 0.219 | 0.144 | 0.147 | 0.0475 | 0.0448 | 0.644 | 0.774 | 0.36 | 0.178 | 0.0448
EMC-BAC-2 |  | 0.6 | 0.535 | 0.306 | 0.29 | 0.319 | 0.333 | 0.193 | 0.16 | 0.112

From the supplement of paper PMC10307832
